Laboratory results taken from patent US20160046592A1, “PHARMACEUTICAL COMPOSITION FOR THE TREATMENT OF DIABETES” (Ajinomoto Co., Inc., priority 2013, published 2016).
pEC50: −log10 of the molar value. Counter-ions that a name gives are not always drawn.

Columns and labels:
[1] = molecular target: T1, PPAR-α (Homo sapiens, UniProt Q07869); assay: Measurement of PPAR-α activity (GAL4 luciferase reporter assay in CV-1 cells); assay type: cell-based; settings: 100(A/B): A = maximum PPAR-α activity of test compound at 3, 10, 30 and 100 μM, B = activity of the compound of WO/2011/058154 at 100 μM, 18 to 20 hours, read-out: Relative fold induction (%) of PPAR α
T1 construct: expressed in transfected cells; host or cells: CV-1 (African green monkey kidney)
T1 sequence (Q07869 167-468): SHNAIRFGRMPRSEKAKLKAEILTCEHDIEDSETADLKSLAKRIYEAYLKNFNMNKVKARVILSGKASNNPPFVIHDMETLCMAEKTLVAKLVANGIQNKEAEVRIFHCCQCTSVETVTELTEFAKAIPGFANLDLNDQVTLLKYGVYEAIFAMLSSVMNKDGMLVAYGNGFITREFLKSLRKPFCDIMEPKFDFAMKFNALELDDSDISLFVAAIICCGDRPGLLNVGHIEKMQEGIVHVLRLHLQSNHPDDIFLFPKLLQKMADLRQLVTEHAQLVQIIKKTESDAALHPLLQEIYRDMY
Method in brief: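 CV-1 cells were co-transfected with a UAS×5-TK-Luc reporter and a hGR-GAL4-hPPARα (LBD 167-468aa) expression plasmid, then dosed with compound for 18 to 20 h at 37 °C, with Bright-Glo luciferase read-out. Relative fold induction (%) is the maximum activity at 3, 10, 30 or 100 μM divided by the activity of a WO/2011/058154 reference compound at 100 μM.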

[2] = system: Rat skeletal muscle-derived L6 myoblasts (differentiated into myotube cells); assay: Evaluation of glycogen accumulation in L6; assay type: cell-based; settings: [14C] glycogen from D-[U-C14] glucose, 3 hours incubation, 100% = compound of Example 1 of WO/2011/058154 at 30 μM
Experimental: The glycogen accumulation activity was evaluated in skeletal muscle cells according to the published article (ANALYTICAL BIOCHEMISTRY, Vol. 261: 159-163, 1998) by the following method. Rat skeletal muscle-derived L6 myoblasts (ATCC) were seeded in a 96-well collagen-coated plate (IWAKI, 4860-010) by using a growth medium (10% FBS-containing α-MEM medium (NACALAI TESQUE, INC., 21444-05)) under a condition of 4×10^4 cells/100 μL/well. After culturing under conditions of 37° C. and 5% CO2 overnight, the medium was replaced with a differentiation medium (2% FBS-containing α-MEM medium), followed by culturing for 3 days to differentiate the myoblasts into myotube cells. On the day of evaluation, the medium was replaced with a glucose-deprived medium (0.1% BSA-containing DMEM medium (Gibco, 11966)). After culturing for 4 hours, the medium was replaced with assay media (0.1% BSA-containing DMEM medium (NACALAI TESQUE, INC., 08456-65)) containing 0.6% DMSO and one of the test compounds at a concentration which was twice the final evaluation concentration at 15 μL/well. Further, an assay medium containing D-[U—C14] glucose (PerkinElmer Inc., NEC042V) at […] was added at 15 μL/well to adjust the final volume to 30 μL/well. Then, the cells were incubated under conditions of 37° C. and 5% CO2 for 3 hours. After the incubation, each medium was removed by suction with an aspirator, and the wells were rinsed with PBS at 200 μL/well twice. Then, 1 N NaOH was added at 50 μL/well, and the cells were lysed by incubation at 60° C. for 10 minutes. After the temperature of the lysed cells was returned to room temperature, each whole cell lysate and […] glycogen (Sigma-Aldrich, G8876) at 5 μL/well were added to a Multiscreen HTS (Millipore, MSFCN6B) to which 100% ethanol was added in advance at 100 μL/well, followed by incubation at 4° C. for 20 minutes. After the incubation, aspiration was conducted by using Multiscreen HTS Vacuum Manifold (Millipore), followed by rinse with 66% ethanol at 200 μL/well twice. After ethanol remaining on the filter was completely removed by drying, MicroScint40 (PerkinElmer Inc.) was added at 50 μL/well, the amount of [14C] glycogen was measured with TopCountNXT (PerkinElmer Inc.). The activity of each test compound was calculated by the following method. Specifically, the relative activity (%) was calculated as 100×(B−A)/(C−A), where A represents a value (cpm) measured for a well not containing the compound but containing only DMSO, B represents a value measured for a well containing the compound and DMSO, and C represents a value measured for a well containing the compound of Example 1 of WO/2011/058154 at a final concentration of 30 μM. EC50 representing the concentration of the compound at which an increase in activity by 50% was caused was calculated using XLfit (idbs).

SMILES: COCCN(CC(=O)O)C(=O)c1cccc(COc2ccc(-c3cc(F)c(F)cc3SC)cc2)c1 [Example 6, 2-[[3-[[4-(4,5-Difluoro-2-methylsulfanyl-phenyl)phenoxy]methyl]benzoyl]-(2-methoxyethyl)amino]acetic Acid]
- Emax [1]: 86%
- pEC50 [2]: 6.24

SMILES: CSc1cc(F)c(F)cc1-c1ccc(OCc2cccc(C(=O)N(CC(=O)O)Cc3ccccn3)c2)cc1 [Example 20, 2-[[3-[[4-(4,5-Difluoro-2-methylsulfanyl-phenyl)phenoxy]methyl]benzoyl]-(2-pyridylmethyl)amino]acetic Acid Trifluoroacetate]
- Emax [1]: 13%
- pEC50 [2]: 6.15

SMILES: CNCCN(CC(=O)O)C(=O)c1cccc(COc2ccc(-c3cc(F)c(F)cc3SC)cc2)c1 [Example 28, 2-[[3-[[4-(4,5-Difluoro-2-methylsulfanyl-phenyl)phenoxy]methyl]benzoyl]-[2-(methylamino)ethyl]amino]acetic Acid Trifluoroacetate]
- Emax [1]: 10%
- pEC50 [2]: > 6.52

SMILES: CSc1cc(F)c(F)cc1-c1ccc(OCc2cccc(C(=O)N(CC(=O)O)CC3CCNCC3)c2)cc1 [Example 35, 2-[[3-[[4-(4,5-Difluoro-2-methylsulfanyl-phenyl)phenoxy]methyl]benzoyl]-(4-piperidylmethyl)amino]acetic Acid Trifluoroacetate]
- Emax [1]: 8.5%
- pEC50 [2]: 6.20

SMILES: CSc1cc(F)c(F)cc1-c1ccc(OCc2cccc(C(=O)N(CCN3CCCC3)CC(=O)O)c2)cc1 [Example 40, 2-[[3-[[4-(4,5-Difluoro-2-methylsulfanyl-phenyl)phenoxy]methyl]benzoyl]-(2-pyrrolidin-1-ylethyl)amino]acetic Acid Trifluoroacetate]
- Emax [1]: 9.4%
- pEC50 [2]: 5.27

SMILES: CSc1cc(F)c(F)cc1-c1ccc(OCc2cccc(C(=O)N(CC(=O)O)Cc3ncco3)c2)cc1 [Example 42, 2-[[3-[[4-(4,5-Difluoro-2-methylsulfanyl-phenyl)phenoxy]methyl]benzoyl]-(oxazol-2-ylmethyl)amino]acetic Acid]
- Emax [1]: 13%
- pEC50 [2]: 6.06

SMILES: COC[C@H]1CC[C@@H](C(=O)O)N1C(=O)c1cccc(COc2ccc(-c3cc(F)c(F)cc3SC)cc2)c1 [Example 65, (2S,5R)-1-[3-[[4-(4,5-Difluoro-2-methylsulfanyl-phenyl)phenoxy]methyl]benzoyl]-5-(methoxymethyl)pyrrolidine-2-carboxylic Acid]
- Emax [1]: 7%
- pEC50 [2]: 5.74

SMILES: CO[C@H]1CCN(C(=O)c2cccc(COc3ccc(-c4cc(F)c(F)c5ccoc45)cc3)c2)[C@@H]1C(=O)O [Example 78, (2S,3S)-1-[3-[[4-(4,5-Difluorobenzofuran-7-yl)phenoxy]methyl]benzoyl]-3-methoxy-pyrrolidine-2-carboxylic Acid]
- Emax [1]: 65%

SMILES: NC(=O)CCN(CC(=O)O)C(=O)c1cccc(COc2ccc(-c3cc(F)c(F)c4ccoc34)cc2)c1 [Example 79, 2-[(3-Amino-3-oxo-propyl)-[3-[[4-(4,5-difluorobenzofuran-7-yl)phenoxy]methyl]benzoyl]amino]acetic Acid]
- Emax [1]: 7.1%

SMILES: COC[C@H](C)N(CC(=O)O)C(=O)c1cccc(COc2ccc(-c3cc(F)c(F)c4ccoc34)cc2)c1 [Example 80, 2-[[3-[[4-(4,5-Difluorobenzofuran-7-yl)phenoxy]methyl]benzoyl]-[(1S)-2-methoxy-1-methyl-ethyl]amino]acetic Acid]
- Emax [1]: 91%

SMILES: CC(=O)N1CCC(CN(CC(=O)O)C(=O)c2cccc(COc3ccc(-c4cc(F)c(F)c5ccoc45)cc3)c2)CC1 [Example 81, 2-[(1-Acetyl-4-piperidyl)methyl-[3-[[4-(4,5-difluorobenzofuran-7-yl)phenoxy]methyl]benzoyl]amino]acetic Acid]
- Emax [1]: 6.4%

SMILES: O=C(O)CN(C(=O)c1cccc(COc2ccc(-c3cc(F)c(F)c4ccoc34)cc2)c1)C1CCNC1=O (stereo not shown) [Example 82, 2-[[3-[[4-(4,5-Difluorobenzofuran-7-yl)phenoxy]methyl]benzoyl]-(2-oxopyrrolidin-3-yl)amino]acetic Acid]
- Emax [1]: 11%
